In brackets after ≈: the same amount, converted by molar mass. Activity calls are given as the source filed them. The calls are words filed in the database; no cut-off is given here. Peptide text beside a SMILES is read from it. * marks the point of attachment. Lauroyl = CCCCCCCCCCCC(=O)*; Octanoyl = CCCCCCCC(=O)*
Key:
Staphylococcus aureus [1] = test: Synergistic antibacterial activity against Staphylococcus aureus 25923 assessed as fractional inhibitory in presence of polymyxin B by checker board assay; type: functional
Klebsiella pneumoniae [2] = test: Antibacterial activity against Klebsiella pneumoniae ATCC 700603 infected in male BALB/c mouse lung infection model assessed as reduction in bacterial load at 5 mg/kg, ip measured after 6 to 36 hrs (reference value: 1.77 10^6CFU/mg); type: functional; conditions: time 6-36 hrs
Pseudomonas aeruginosa [3] = test: Antibacterial activity against Pseudomonas aeruginosa ATCC 27853 assessed as reduction in bacterial growth incubated for 18 to 24 hrs by broth microdilution method; type: functional; conditions: time 18-24 hrs
Staphylococcus aureus [4] = test: Antibacterial activity against Staphylococcus aureus ATCC 25923 assessed as reduction in bacterial growth incubated for 18 to 24 hrs by broth microdilution method; type: functional; conditions: time 18-24 hrs
Staphylococcus aureus [5] = test: Additive antibacterial activity against Staphylococcus aureus 113 assessed as fractional inhibitory in presence of streptomycin by checker board assay; type: functional
Escherichia coli [6] = test: Antibacterial activity against Escherichia coli assessed as reduction in survival bacterial growth in presence of <=2 ug/ml chymotrypsin measured after1 hr by absorbance based analysis; type: functional, organism-based; conditions: time 1.0 hrs
Staphylococcus aureus [7] = test: Antibacterial activity against methicillin resistant Staphylococcus aureus infected in male BALB/c mouse model of skin wound infection assessed as healthy development of hair follicles at 2 mg/kg, ip measured after 10 days post infection; type: functional, organism-based; conditions: time 10.0 day
Staphylococcus aureus [8] = test: Induction of morphological changes in Staphylococcus aureus assessed as cell aggregation adhesion at 2 times MIC measured after 120 mins by SEM analysis; type: functional, organism-based
[9] = Acute toxicity in male BALB/c mouse assessed mouse survival at 100 to 130 mg/kg, ip measured within 3 hrs; type: organism-based; conditions: in vivo, dose 100-130 mg/kg
Cell membrane [10] = test: Induction of outer membrane permeabilization in Escherichia coli assessed as increase in fluorescence intensity measured for 10 mins by fluorescence based NPN uptake assay
[11] = Stability in mouse serum assessed as retention time measured after 1 hr by RP-HPLC analysis; type: ADME, cell-free
Klebsiella pneumoniae [12] = test: Induction of morphological changes in Klebsiella pneumoniae assessed as cell aggregation at 2 times MIC measured after 30 mins by SEM analysis; type: functional, organism-based
Escherichia coli [13] = test: Antibacterial activity against Escherichia coli 850 assessed as reduction in bacterial growth incubated for 18 to 24 hrs by broth microdilution method; type: functional; conditions: time 18-24 hrs
Lipopolysaccharide (LPS) = test: Binding affinity to LPS (unknown origin) assessed as reduction in bacterial mortality at 2 times MIC preincubated with LPS for 1 hr followed by bacteria addition for 24 hrs by spectrophotometric analysis
Klebsiella pneumoniae [14] = test: Antibacterial activity against Klebsiella pneumoniae ATCC 700603 infected in male BALB/c mouse lung infection model assessed as reduction in number of inflammatory cells at 5 mg/kg, ip measured after 6 to 36 hrs; type: functional, organism-based; conditions: time 6-36 hrs
Escherichia coli [15] = test: Antibacterial activity against Escherichia coli 780 assessed as reduction in bacterial growth incubated for 18 to 24 hrs by broth microdilution method; type: functional; conditions: time 18-24 hrs
Staphylococcus aureus [16] = test: Synergistic antibacterial activity against Staphylococcus aureus 25923 measured after 18 hrs in presence of cephalothin by absorbance based analysis; type: functional, organism-based
Staphylococcus aureus [17] = test: Antibacterial activity against methicillin resistant Staphylococcus aureus infected in male BALB/c mouse model of skin wound infection assessed as reduction in wound area at 2 mg/kg, ip measured after 6 to 36 hrs postinfection; type: functional, organism-based; conditions: time 6-36 hrs
[18] = Potency index, ratio of polymyxin B to test compound for acute toxicity in BALB/c mouse assessed lethal dose administered as ip dose measured for 7 days; type: organism-based; conditions: in vivo, 168 h, time 7 day
Pseudomonas aeruginosa [19] = test: Antibacterial activity against Pseudomonas aeruginosa 124 assessed as reduction in bacterial growth incubated for 18 to 24 hrs by broth microdilution method; type: functional; conditions: time 18-24 hrs
Staphylococcus aureus [20] = test: Synergistic antibacterial activity against methicillin-resistant Staphylococcus aureus measured after 18 hrs in presence of polymyxin B by absorbance based analysis; type: functional, organism-based
Cell membrane [21] = test: Induction of inner membrane permeabilization in Escherichia coli at 2 times MIC measured for 135 mins by absorbance based analysis
Klebsiella pneumoniae [22] = test: Induction of morphological changes in Klebsiella pneumoniae assessed as cell contraction at 2 times MIC measured after 120 mins by SEM analysis; type: functional, organism-based
Acinetobacter baumannii = test: Antibacterial activity against Acinetobacter baumannii ATCC 19606 assessed as reduction in bacterial growth incubated for 18 to 24 hrs by broth microdilution method; type: functional; conditions: time 18-24 hrs
Staphylococcus aureus [23] = test: Induction of morphological changes in Staphylococcus aureus assessed as cell aggregation at 2 times MIC measured after 30 mins by SEM analysis; type: functional, organism-based
Staphylococcus aureus [24] = test: Antibacterial activity against methicillin resistant Staphylococcus aureus infected in male BALB/c mouse model of skin wound infection assessed as appearance of intact structure of stratum corneum at 2 mg/kg, ip measured after 10 days post infection; type: functional, organism-based; conditions: time 10.0 day
Escherichia coli [25] = test: Antibacterial activity against Escherichia coli assessed as reduction in survival bacterial growth in presence of KCl measured after 18 to 24 hrs (reference value: 8 microM); type: functional; conditions: time 18-24 hrs
Staphylococcus aureus [26] = test: Antibacterial activity against methicillin-resistant Staphylococcus aureus 75 assessed as reduction in bacterial growth incubated for 18 to 24 hrs by broth microdilution method; type: functional; conditions: time 18-24 hrs
Staphylococcus aureus [27] = test: Antibacterial activity against Staphylococcus aureus 25923 at sub-MIC concentration measured after 15 passages in presence of rifampin; type: functional, organism-based
[28] = Stability in mouse serum assessed as half life measured after 1 hr by HPLC analysis; type: ADME, cell-free
Escherichia coli [29] = test: Antibacterial activity against Escherichia coli assessed as reduction in survival bacterial growth in presence of FeCl3 measured after 18 to 24 hrs (reference value: 8 microM); type: functional; conditions: time 18-24 hrs
Staphylococcus aureus [30] = test: Bactericidal activity against Staphylococcus aureus assessed as bacterial mortality rate at 2 times MIC preincubated with LTA for 1 hr followed by bacteria addition for 24 hrs by spectrophotometric analysis relative to control; type: functional
Escherichia coli [31] = test: Antibacterial activity against Escherichia coli assessed as reduction in survival bacterial growth in presence of ZnCl2 measured after 18 to 24 hrs (reference value: 8 microM); type: functional; conditions: time 18-24 hrs
Enterococcus faecalis = test: Antibacterial activity against Enterococcus faecalis ATCC 29212 assessed as reduction in bacterial growth incubated for 18 to 24 hrs by broth microdilution method; type: functional; conditions: time 18-24 hrs
Staphylococcus aureus [32] = test: Antibacterial activity against methicillin-resistant Staphylococcus aureus ATCC 33591 assessed as reduction in bacterial growth incubated for 18 to 24 hrs by broth microdilution method; type: functional; conditions: time 18-24 hrs
[33] = Acute toxicity in male BALB/c mouse assessed inflammatory cell infiltration in liver at 100 to 130 mg/kg, ip measured after 7 days by H and E staining based analysis; type: organism-based; conditions: in vivo, 168 h, dose 100-130 mg/kg, time 7 day
Staphylococcus aureus [34] = test: Antibacterial activity against Staphylococcus aureus assessed as reduction in survival bacterial growth in presence of ZnCl2 measured after 18 to 24 hrs (reference value: 8 microM); type: functional; conditions: time 18-24 hrs
Staphylococcus aureus [35] = test: Antibacterial activity against Staphylococcus aureus assessed as reduction in survival bacterial growth in presence of Mgcl2 measured after 18 to 24 hrs (reference value: 8 microM); type: functional; conditions: time 18-24 hrs
[36] = Acute toxicity in male BALB/c mouse assessed inflammatory cell infiltration in kidney at 100 to 130 mg/kg, ip measured after 7 days by H and E staining based analysis; type: organism-based; conditions: in vivo, 168 h, dose 100-130 mg/kg, time 7 day

Row | Compound | fractional inhibitory concentration index (FICI) (Staphylococcus aureus [1]) | Activity (Klebsiella pneumoniae [2]) | MIC (Pseudomonas aeruginosa [3]) [µM] | MIC (Staphylococcus aureus [4]) [µM] | fractional inhibitory concentration index (FICI) (Staphylococcus aureus [5]) | Activity (Escherichia coli [6]) | Activity (Staphylococcus aureus [7]) | Activity (Staphylococcus aureus [8]) | Activity [9] | Activity (Cell membrane [10]) | Retention_time [11] [min] | Activity (Klebsiella pneumoniae [12]) | MIC (Escherichia coli [13]) [µM] | Activity (Lipopolysaccharide (LPS)) | Activity (Klebsiella pneumoniae [14]) | MIC (Escherichia coli [15]) [µM] | Activity (Staphylococcus aureus [16]) | Activity (Staphylococcus aureus [17]) | Ratio [18] | MIC (Pseudomonas aeruginosa [19]) [µM] | other results
1 | CCCCCCCCCCCC(=O)N[C@@H](CCCCN)C(=O)N[C@@H](CCCCN)C(=O)N[C@@H](Cc1c[nH]c2ccccc12)C(=O)N[C@@H](Cc1c[nH]c2ccccc12)C(N)=O (Lauroyl-KKWW-NH2) | 0.5 | 2.4 10^4CFU/mg | 8 (≈ 6.62 µg/mL) | 4 (≈ 3.31 µg/mL) | 0.562 | Active | Active | Active | Toxic | Dose-dependent-effect | 19.718 | Active | 8 (≈ 6.62 µg/mL) | Active | Active | 8 (≈ 6.62 µg/mL) | Active | Active | 4.84 | 8 (≈ 6.62 µg/mL) | Activity (Staphylococcus aureus [20]): Active; Activity (Cell membrane [21]): Active; Compound Showed Higher Permeability Than Positive Control 0.1% Tritonx-100; Activity (Klebsiella pneumoniae [22]): Active; Compound Showed More Pronounced Effect Compared To 30 Mins Incubation Time; MIC (Acinetobacter baumannii): 16 µM (≈ 13.2 µg/mL); Activity (Staphylococcus aureus [23]): Active; Activity (Staphylococcus aureus [24]): Active; MIC (Escherichia coli [25]): 4 µM; MIC (Staphylococcus aureus [26]): 4 µM (≈ 3.31 µg/mL); Activity (Staphylococcus aureus [27]): Active; half-life [28]: 255 min; MIC (Escherichia coli [29]): 8 µM; Activity (Staphylococcus aureus [30]): >50%; MIC (Escherichia coli [31]): 8 µM; MIC (Enterococcus faecalis): 8 µM (≈ 6.62 µg/mL); MIC (Staphylococcus aureus [32]): 4 µM (≈ 3.31 µg/mL)
2 | CCCCCCCC(=O)NCCCC[C@H](NC(=O)CCCCCCC)C(=O)N[C@@H](CCCCN)C(=O)N[C@@H](CCCCN)C(=O)N[C@@H](Cc1c[nH]c2ccccc12)C(=O)N[C@@H](Cc1c[nH]c2ccccc12)C(N)=O (Octanoyl-K(Octanoyl)KKWW-NH2) | 0.5 | 1.66 10^4CFU/mg | 16 (≈ 16.4 µg/mL) | 8 (≈ 8.21 µg/mL) | 0.75 | Active | Active | Active | Toxic | Dose-dependent-effect | 19.975 | Active | 8 (≈ 8.21 µg/mL) | Active | Active | 8 (≈ 8.21 µg/mL) | Active | Active | 4.78 | 8 (≈ 8.21 µg/mL) | Activity [33]: Non-toxic; MIC (Staphylococcus aureus [34]): 8 µM; Activity (Staphylococcus aureus [20]): Active; Activity (Cell membrane [21]): Active; MIC (Staphylococcus aureus [35]): 8 µM; Activity (Klebsiella pneumoniae [22]): Active; Compound Showed More Pronounced Effect Compared To 30 Mins Incubation Time; MIC (Acinetobacter baumannii): 16 µM (≈ 16.4 µg/mL); Activity (Staphylococcus aureus [23]): Active; Activity (Staphylococcus aureus [24]): Active; MIC (Escherichia coli [25]): 8 µM; MIC (Staphylococcus aureus [26]): 8 µM (≈ 8.21 µg/mL); half-life [28]: 378 min; MIC (Escherichia coli [29]): 8 µM; Activity (Staphylococcus aureus [30]): >50%; MIC (Escherichia coli [31]): 4 µM; Activity [36]: Non-toxic; MIC (Enterococcus faecalis): 16 µM (≈ 16.4 µg/mL); MIC (Staphylococcus aureus [32]): 8 µM (≈ 8.21 µg/mL)

Source: ChEMBL document CHEMBL6114980, “Single or double lipid-modified ultra-short antimicrobial peptides for treating infections caused by resistant bacteria” (Eur J Med Chem, 2025)
